# Experimental data as given in ChEMBL document CHEMBL5724914, “Linking interpersonal differences in gut microbiota composition and drug biotransformation activity” (2024).
# Tests used:
# [1] = The drug is tested on Z-005 corresponding to metagenome with ENA study accession number: PRJEB37062 and ENA sample accession number: ERS12561805 for biotransformation under anaerobic condition. The drug concentrations were measured over 9 timepoints collected between 0 and 24 hours of incubation by liquid-chromatography-coupled mass spectrometry (LC–MS); conditions: 2 µM
# [2] = human gut metagenome, 24 h, 2 µM
# [3] = The drug is tested on Z-030 corresponding to mouse gut metagenome with ENA study accession number: PRJEB37062 and ENA sample accession number: ERS12561829 for biotransformation under anaerobic condition. The drug concentrations were measured over 9 timepoints collected between 0 and 24 hours of incubation by liquid-chromatography-coupled mass spectrometry (LC–MS); conditions: 2 µM
# [4] = The drug is tested on WLS-077 corresponding to human gut metagenome with ENA study accession number: PRJEB37062 and ENA sample accession number: ERS12561750 for biotransformation under anaerobic condition. The drug concentrations were measured over 9 timepoints collected between 0 and 24 hours of incubation by liquid-chromatography-coupled mass spectrometry (LC–MS); conditions: 2 µM
# [5] = human gut metagenome, 24 h, 2 µM; remark: listed apart in the source
# [6] = The drug is tested on Z-020 corresponding to rabbit gut metagenome with ENA study accession number: PRJEB37062 and ENA sample accession number: ERS12561819 for biotransformation under anaerobic condition. The drug concentrations were measured over 9 timepoints collected between 0 and 24 hours of incubation by liquid-chromatography-coupled mass spectrometry (LC–MS); conditions: 2 µM
# [7] = human gut metagenome, 24 h, 2 µM; remark: listed apart in the source
# [8] = human gut metagenome, 24 h, 2 µM; remark: listed apart in the source
# [9] = The drug is tested on Z-001 corresponding to mouse gut metagenome with ENA study accession number: PRJEB37062 and ENA sample accession number: ERS12561801 for biotransformation under anaerobic condition. The drug concentrations were measured over 9 timepoints collected between 0 and 24 hours of incubation by liquid-chromatography-coupled mass spectrometry (LC–MS); conditions: 2 µM
# [10] = human gut metagenome, 24 h, 2 µM; remark: listed apart in the source
# [11] = human gut metagenome, 24 h, 2 µM; remark: listed apart in the source
# [12] = The drug is tested on Z-022 corresponding to mouse gut metagenome with ENA study accession number: PRJEB37062 and ENA sample accession number: ERS12561821 for biotransformation under anaerobic condition. The drug concentrations were measured over 9 timepoints collected between 0 and 24 hours of incubation by liquid-chromatography-coupled mass spectrometry (LC–MS); conditions: 2 µM
# [13] = The drug is tested on Z-008 corresponding to metagenome with ENA study accession number: PRJEB37062 and ENA sample accession number: ERS12561808 for biotransformation under anaerobic condition. The drug concentrations were measured over 9 timepoints collected between 0 and 24 hours of incubation by liquid-chromatography-coupled mass spectrometry (LC–MS); conditions: 2 µM
# [14] = human gut metagenome, 24 h, 2 µM; remark: listed apart in the source
# [15] = human gut metagenome, 24 h, 2 µM; remark: listed apart in the source
# [16] = The drug is tested on WLS-027 corresponding to human gut metagenome with ENA study accession number: PRJEB37062 and ENA sample accession number: ERS12561744 for biotransformation under anaerobic condition. The drug concentrations were measured over 9 timepoints collected between 0 and 24 hours of incubation by liquid-chromatography-coupled mass spectrometry (LC–MS); conditions: 2 µM
# [17] = human gut metagenome, 24 h, 2 µM; remark: listed apart in the source
# [18] = The drug is tested on Z-027 corresponding to metagenome with ENA study accession number: PRJEB37062 and ENA sample accession number: ERS12561826 for biotransformation under anaerobic condition. The drug concentrations were measured over 9 timepoints collected between 0 and 24 hours of incubation by liquid-chromatography-coupled mass spectrometry (LC–MS); conditions: 2 µM
# [19] = human gut metagenome, 24 h, 2 µM; remark: listed apart in the source
# [20] = The drug is tested on Z-012 corresponding to metagenome with ENA study accession number: PRJEB37062 and ENA sample accession number: ERS12561812 for biotransformation under anaerobic condition. The drug concentrations were measured over 9 timepoints collected between 0 and 24 hours of incubation by liquid-chromatography-coupled mass spectrometry (LC–MS); conditions: 2 µM
# Also: call rule not given here.
smiles,measurement,setting,value
CN(C)C(=O)Oc1cc(OC(=O)N(C)C)cc(C(O)CNC(C)(C)C)c1 (stereo not given) [BAMBUTEROL],Bacterial Biotransformation,[1],Compound NOT metabolized
same,Bacterial Biotransformation,[2],Compound NOT metabolized
same,Bacterial Biotransformation,[3],Compound NOT metabolized
same,Bacterial Biotransformation,[4],Compound NOT metabolized
same,Bacterial Biotransformation,[5],Compound NOT metabolized
same,Bacterial Biotransformation,[6],Compound NOT metabolized
same,Bacterial Biotransformation,[7],Compound NOT metabolized
same,Bacterial Biotransformation,[8],Compound NOT metabolized
same,Bacterial Biotransformation,[9],Compound metabolized
same,Bacterial Biotransformation,[10],Compound metabolized
same,Bacterial Biotransformation,[11],Compound metabolized
same,Bacterial Biotransformation,[12],Compound metabolized
same,Bacterial Biotransformation,[13],Compound NOT metabolized
same,Bacterial Biotransformation,[14],Compound metabolized
same,Bacterial Biotransformation,[15],Compound metabolized
same,Bacterial Biotransformation,[16],Compound NOT metabolized
same,Bacterial Biotransformation,[17],Compound metabolized
same,Bacterial Biotransformation,[18],Compound NOT metabolized
same,Bacterial Biotransformation,[19],Compound NOT metabolized
same,Bacterial Biotransformation,[20],Compound NOT metabolized
